Source: patent US20150004110A1, “NOVEL ANTI-AGING AND DEPIGMENTING COSMETIC COMPOSITIONS” (DIVERCHIM, priority 2011, published 2015)

Columns and labels:
[1] = system: collagen VII; experiment: Staining and immunolabelling of skin explant sections: collagen VII; type: cell-based, human; conditions: treated skin explant sections
Protocol: (§1) 1. Preparation of the explants • During abdominoplasty of a person, 45 skin explants were prepared. The explants were put in BEM medium (BIO-EC's Explants Medium) for survival at 37° C. in humid atmosphere, enriched with 5% CO2.
(§2) 2. Application of the products • The solutions are prepared in DMSO from pure products, in order to obtain final concentrations of […] by incorporating an identical volume of 10 μl in each well and for each treatment. The treatment was carried out in the survival medium on days 0, 1, 2, 5 and 7.
(§3) 3. Taking samples • On D0, the 3 explants of batch TO were taken and each explant was cut in two. One part was fixed in buffered formol for observation of the general morphology. The other was frozen and stored at −80° C. • On D5 and D9, 3 explants from each batch were taken and treated in the same way.
(§4) 4. Histological treatment • After fixation for 48 hours in buffered formol, the samples were dehydrated and embedded in paraffin using a Leica 1020 automatic dehydrator. They were embedded according to procedure MO-H-153 using a Leica EG 1160 coating station. Sections of 5 μm were prepared according to procedure MO-H-173 using a Minot-type microtome, Leica RM 2125 and mounted on Superfrost® histological glass slides.
(§5) 6. Staining and immunolabelling
(§6) Immunolabelling will be carried out on sections with the appropriate antibody. […]

[2] = system: collagen I; experiment: Staining and immunolabelling of skin explant sections: collagen I; type: cell-based, human; conditions: treated skin explant sections
Protocol: as §1, §2, §3, §4, §5, §6

[3] = system: collagen IV; experiment: Staining and immunolabelling of skin explant sections: collagen IV; type: cell-based, human; conditions: treated skin explant sections
Protocol: as §1, §2, §3, §4, §5, §6

[4] = molecular target: T1, PPARδ (h) (Homo sapiens, UniProt Q03181); experiment: PPARδ agonist effect, coactivator Alpha screen; type: biochemical
T1 sequence (Q03181 1-441): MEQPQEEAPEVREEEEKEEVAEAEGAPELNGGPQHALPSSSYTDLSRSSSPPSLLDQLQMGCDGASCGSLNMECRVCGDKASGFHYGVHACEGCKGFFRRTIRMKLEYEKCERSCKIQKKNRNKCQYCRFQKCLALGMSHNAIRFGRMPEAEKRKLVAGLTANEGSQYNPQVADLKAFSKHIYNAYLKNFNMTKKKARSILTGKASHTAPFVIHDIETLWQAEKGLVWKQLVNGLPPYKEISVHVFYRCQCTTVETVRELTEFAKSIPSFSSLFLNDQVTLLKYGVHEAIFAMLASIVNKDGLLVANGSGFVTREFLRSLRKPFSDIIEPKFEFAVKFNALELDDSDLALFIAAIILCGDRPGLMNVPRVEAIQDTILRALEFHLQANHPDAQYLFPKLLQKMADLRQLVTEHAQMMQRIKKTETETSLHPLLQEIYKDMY
Protocol: (§7) The agonist or antagonist activity of compound 1 on the PPAR receptors was tested by fluorescence techniques. • Material and Methods
(§8) The results are expressed as: • percentage of control specific agonist response (measured specific response/control specific agonist response)×100) and • percentage inhibition of the control specific agonist response (100−((measured specific response)/control specific agonist response)×100)) obtained in the presence of compound 1.
(§9) The EC50 values (concentration at which the maximum specific response is 50%) and the IC50 values (concentration at which the maximum control specific agonist response is inhibited by 50%) are determined by non-linear regression analysis of the concentration-response curves with a mean replicated value using adjustment of Hill's equation

[5] = molecular target: T2, PPARα (h) (Homo sapiens, UniProt Q07869); experiment: PPARα competitive radioligand binding assay (Cerep)
T2 sequence (Q07869 1-468): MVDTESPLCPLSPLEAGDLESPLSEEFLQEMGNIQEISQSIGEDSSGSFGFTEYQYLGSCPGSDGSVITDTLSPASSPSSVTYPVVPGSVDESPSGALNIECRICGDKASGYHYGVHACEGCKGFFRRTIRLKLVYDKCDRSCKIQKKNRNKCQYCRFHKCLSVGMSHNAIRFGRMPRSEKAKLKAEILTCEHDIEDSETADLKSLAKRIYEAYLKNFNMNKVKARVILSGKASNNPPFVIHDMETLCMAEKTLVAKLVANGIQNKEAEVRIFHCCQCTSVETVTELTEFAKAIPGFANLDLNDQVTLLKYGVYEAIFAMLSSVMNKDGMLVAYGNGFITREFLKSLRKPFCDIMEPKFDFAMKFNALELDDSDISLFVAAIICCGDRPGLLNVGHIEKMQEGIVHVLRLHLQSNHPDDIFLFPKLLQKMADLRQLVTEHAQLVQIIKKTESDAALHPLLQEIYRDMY
Protocol: The affinity of compound 1 for the PPAR receptors (α and γ) was tested by in vitro binding assays (tests carried out by the company Cerep).
This is a nuclear receptor competitive binding assay, between a radiolabelled ligand and the test molecule (here compound 1).
The principle of the technique consists of measuring the displacement of the radioactive ligand bound to the receptor by the test molecule. • Material and Methods
The specific binding of the ligand is defined by the difference between total binding and non-specific binding determined in the presence of an excess of unlabelled ligand.
The results are expressed as: • percentage of control specific binding ((measured specific binding/control specific binding)×100)) • percentage of inhibition of control specific binding ((100−(measured specific binding/control specific binding)) obtained in the presence of compound 1.
The values of IC50 (concentration at which the maximum control specific binding is inhibited by 50%), and the Hill coefficient (nH) are determined by non-linear regression analysis of the curves of competition with a mean replicated value using adjustment of Hill's equation
The inhibition constant (Ki) was calculated using the Cheng-Prusoff equation

[6] = system: skin explants (abdominoplasty); experiment: Histological assessment of the general morphology of skin explants maintained in survival; type: cell-based, human; conditions: 2 μg/mL in DMSO, after 9 days of survival
Protocol: as §1, §2, §3
4. […]
5. Microscopic observations • The microscopic observations were carried out by light microscopy and fluorescence microscopy, using a Orthoplan-type Leica microscope, with ×25 objective. The images were recorded with a Sony DXC 390P tri CCD camera and stored using the Leica IM1000 data archiving software. • The general morphology was observed on sections in paraffin after staining with Masson trichrome, Goldner variant according to procedure MO-H-157. […]

[7] = molecular target: T2, PPARα (h); experiment: PPARα agonist effect, coactivator Alpha screen; type: biochemical
Protocol: as §7, §8, §9

% Control agonist response ([4]; 10^−5 M): 2% | % Control agonist response ([4]; 10^−6 M): 4% | % Control agonist response ([4]; 10^−7 M): 2% | PPARδ agonist activity (conclusion in words) ([4]; 10^−7 to 10^−5 M): not an agonist | inhibition at 10 µM ([5]; 10^−5 M, agonist radioligand, read-out: % Inhibition of control specific binding): 0% | inhibition at 1 µM ([5]; 10^−6 M, agonist radioligand, read-out: % Inhibition of control specific binding): -2% | inhibition at 0.1 µM ([5]; 10^−7 M, agonist radioligand, read-out: % Inhibition of control specific binding): -5% | Activity with respect to the PPARα receptor (binding, conclusion in words) ([5]; 10^−7 to 10^−5 M): no activity | % Control agonist response ([7]; 10^−5 M): 2% | % Control agonist response ([7]; 10^−6 M): 0% | % Control agonist response ([7]; 10^−7 M): −1% | PPARα agonist activity (conclusion in words) ([7]; 10^−7 to 10^−5 M): not an agonist
SMILES: Oc1ccccc1CCOc1ccc(F)cc1 [Compound 1, 2-[2-(4-fluoro-phenoxy)-ethyl]-phenol]
Collagen VII along the dermal-epidermal junction [1]: moderate overexpression | Collagen I in the papillary dermis [2]: clear overexpression | Collagen IV along the dermal-epidermal junction [3]: clear overexpression | General morphology: epidermal structure and papillary dermis [6]: very clear epidermal and dermal restructuring activity
